Test results taken from ChEMBL document CHEMBL1145424, “Novel boron-containing, nonclassical antifolates: synthesis and preliminary biological and structural evaluation” (J Med Chem, 2007).
Converted amounts (≈) assume the structure as drawn.

How the values were obtained:
PC-3 = assay: Growth inhibition of human PC3 cells after 72 hrs; assay type: functional, cell-based; conditions: PC-3, 72 h
ZR-75-1 = assay: Growth inhibition of human ZR-75-1 cells after 72 hrs; assay type: functional, cell-based; conditions: ZR-75-1, 72 h
CAKI-1 = assay: Growth inhibition of human CAKI1 cells after 72 hrs; assay type: functional, cell-based; conditions: CAKI-1, 72 h
NCI-H23 = assay: cells; conditions: Homo sapiens, NCI-H23, 72 h
Description: Growth inhibition of human NCI-H23 cells after 72 hrs

LOX IMVI = assay: cells; conditions: Homo sapiens, 72 h
Description: Growth inhibition of human LOX IMVI cells after 72 hrs

DLD-1 = assay: Growth inhibition of human DLD1 cells after 72 hrs; assay type: functional, cell-based; conditions: DLD-1, 72 h
SNB-7 = assay: Growth inhibition of human SNB7 cells after 72 hrs; assay type: functional, cell-based; conditions: SNB-7, 72 h

IC50 (PC-3): 0.027 µg/mL (≈ 0.0594 µM)
IC50 (NCI-H23): 0.29 µg/mL (≈ 0.638 µM)
IC50 (LOX IMVI): 0.057 µg/mL (≈ 0.125 µM)
IC50 (DLD-1): > 60 µg/mL
SMILES: CN(Cc1cnc2nc(N)nc(N)c2n1)c1ccc(C(=O)N[C@@H](CCC(=O)O)C(=O)O)cc1 [METHOTREXATE]
IC50 (ZR-75-1): > 60 µg/mL
IC50 (CAKI-1): > 60 µg/mL
IC50 (SNB-7): > 60 µg/mL
